Measured values published in paper PMC8185074, “Anchor extension: a structure-guided approach to design cyclic peptides targeting enzyme active sites” (Nature Communications, 2021).
pIC50: −log10 of the molar value. Peptide text beside a SMILES is read from it.

Key:
Type in all cases: biochemical
[1] = target: T1, HDAC1 (Homo sapiens, UniProt Q13547); test: HDAC1 inhibition, full IC50 measurement (Reaction Biology; fluorogenic p53 peptide RHKK(Ac)AMC); conditions: t1/t2 replicates
T1 construct: purchased Reaction Biology Corporation (assay run by the CRO)
Outline: (§1)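 Inhibitory peptides were acoustically dispensed with enzyme, then substrate added; 1 h at 30 °C. Developer stopped reaction; plateau endpoint fluorescence (360/460 nm) gave IC50.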

[2] = target: T2, HDAC8 (Homo sapiens, UniProt Q9BY41); test: HDAC8 inhibition, full IC50 measurement (Reaction Biology; fluorogenic p53 peptide RHKK(Ac)AMC); conditions: t1/t2 replicates
T2 construct: purchased Reaction Biology Corporation (assay run by the CRO)
T2 sequence (Q9BY41 1-377): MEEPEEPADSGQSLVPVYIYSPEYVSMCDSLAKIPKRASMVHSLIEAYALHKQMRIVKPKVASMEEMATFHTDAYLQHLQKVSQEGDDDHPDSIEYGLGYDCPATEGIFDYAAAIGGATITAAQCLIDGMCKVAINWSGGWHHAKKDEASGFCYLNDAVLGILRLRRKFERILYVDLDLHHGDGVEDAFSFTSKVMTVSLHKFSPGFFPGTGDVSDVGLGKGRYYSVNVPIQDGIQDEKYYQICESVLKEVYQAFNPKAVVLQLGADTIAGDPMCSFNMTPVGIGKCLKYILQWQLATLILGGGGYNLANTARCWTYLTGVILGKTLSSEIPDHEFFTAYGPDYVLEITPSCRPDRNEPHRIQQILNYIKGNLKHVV
Outline: as §1

[3] = target: T3, HDAC2 (Homo sapiens, UniProt Q92769); test: HDAC2 inhibition, full IC50 measurement (Reaction Biology; fluorogenic p53 peptide RHKK(Ac)AMC)
T3 construct: purchased Reaction Biology Corporation (assay run by the CRO)
Outline: as §1

[4] = peptide conc. 1.00E-05 M, listed as des2.1.0_t1
[5] = peptide conc. 1.00E-05 M, listed as des2.1.0_t2
[6] = peptide conc. 1.11E-06 M, listed as des2.1.0_t1
[7] = peptide conc. 1.11E-06 M, listed as des2.1.0_t2
[8] = peptide conc. 1.23E-07 M, listed as des2.1.0_t1
[9] = peptide conc. 1.23E-07 M, listed as des2.1.0_t2
[10] = peptide conc. 1.37E-08 M, listed as des2.1.0_t1
[11] = peptide conc. 1.37E-08 M, listed as des2.1.0_t2
[12] = peptide conc. 1.52E-09 M, listed as des2.1.0_t1
[13] = peptide conc. 1.52E-09 M, listed as des2.1.0_t2
[14] = peptide conc. 3.33E-06 M, listed as des2.1.0_t1
[15] = peptide conc. 3.33E-06 M, listed as des2.1.0_t2
[16] = peptide conc. 3.70E-07 M, listed as des2.1.0_t1
[17] = peptide conc. 3.70E-07 M, listed as des2.1.0_t2
[18] = peptide conc. 4.12E-08 M, listed as des2.1.0_t1
[19] = peptide conc. 4.12E-08 M, listed as des2.1.0_t2
[20] = peptide conc. 4.57E-09 M, listed as des2.1.0_t1
[21] = peptide conc. 4.57E-09 M, listed as des2.1.0_t2
[22] = peptide conc. 5.08E-10 M, listed as des2.1.0_t1
[23] = peptide conc. 5.08E-10 M, listed as des2.1.0_t2

T1 sequence (Q13547 whole entry): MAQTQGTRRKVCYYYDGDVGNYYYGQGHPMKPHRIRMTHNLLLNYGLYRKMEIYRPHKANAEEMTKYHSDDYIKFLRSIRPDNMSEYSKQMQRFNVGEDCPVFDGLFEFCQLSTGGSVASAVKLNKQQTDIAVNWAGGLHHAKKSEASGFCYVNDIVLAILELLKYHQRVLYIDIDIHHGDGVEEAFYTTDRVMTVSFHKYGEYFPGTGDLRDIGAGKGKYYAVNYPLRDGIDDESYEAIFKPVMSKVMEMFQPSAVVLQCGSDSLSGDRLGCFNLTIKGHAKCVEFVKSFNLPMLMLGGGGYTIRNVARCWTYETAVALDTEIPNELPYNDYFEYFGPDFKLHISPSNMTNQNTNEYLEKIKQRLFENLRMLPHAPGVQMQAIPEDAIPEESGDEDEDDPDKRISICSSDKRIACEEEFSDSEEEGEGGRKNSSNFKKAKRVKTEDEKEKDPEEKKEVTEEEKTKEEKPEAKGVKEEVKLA
T3 sequence (Q92769 whole entry): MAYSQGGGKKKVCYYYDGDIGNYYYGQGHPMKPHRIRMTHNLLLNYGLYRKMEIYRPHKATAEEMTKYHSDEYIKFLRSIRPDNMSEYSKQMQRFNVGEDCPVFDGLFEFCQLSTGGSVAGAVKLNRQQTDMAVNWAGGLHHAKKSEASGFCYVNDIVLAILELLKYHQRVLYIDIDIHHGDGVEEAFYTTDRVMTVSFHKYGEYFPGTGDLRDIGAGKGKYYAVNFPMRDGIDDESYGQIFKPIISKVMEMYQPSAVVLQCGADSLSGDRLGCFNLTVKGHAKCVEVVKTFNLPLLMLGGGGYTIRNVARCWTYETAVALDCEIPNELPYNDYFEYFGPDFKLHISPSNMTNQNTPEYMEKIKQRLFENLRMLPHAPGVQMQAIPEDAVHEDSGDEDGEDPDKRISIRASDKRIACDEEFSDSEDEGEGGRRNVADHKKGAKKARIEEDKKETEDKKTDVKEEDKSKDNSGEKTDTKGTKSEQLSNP

SMILES: C[C@H](O)[C@H]1NC(=O)[C@H](Cc2c[nH]c3ccccc23)NC(=O)[C@H](CCCCCS)NC(=O)[C@H](CCCCN)NC(=O)[C@@H](CC(=O)O)NC(=O)[C@@H](CCCCN)NC(=O)[C@@H](CO)NC(=O)[C@H](CC(N)=O)NC(=O)[C@H](CC(=O)O)NC1=O [des2.1.0, SHA-Trp-dThr-Asp-Asn-dSer-dLys-dAsp-Lys] (HELM PEPTIDE1{D.N.[dS].[dK].[dD].K.[O=C([C@H](CCCCCS)N[*:1])[*:2]].W.[dT]}$PEPTIDE1,PEPTIDE1,1:R1-9:R2$$$V2.0)
- HDAC1 activity raw data (signal) [1, 4]: 2361
- HDAC1 activity raw data (signal) [1, 5]: -1067
- HDAC1 activity raw data (signal) [1, 6]: 35066
- HDAC1 activity raw data (signal) [1, 7]: 30452
- HDAC1 activity raw data (signal) [1, 8]: 229823
- HDAC1 activity raw data (signal) [1, 9]: 221730
- HDAC1 activity raw data (signal) [1, 10]: 719453
- HDAC1 activity raw data (signal) [1, 11]: 647364
- HDAC1 activity raw data (signal) [1, 12]: 1054522
- HDAC1 activity raw data (signal) [1, 13]: 936834
- HDAC1 activity raw data (signal) [1, 14]: 10147
- HDAC1 activity raw data (signal) [1, 15]: 8024
- HDAC1 activity raw data (signal) [1, 16]: 106445
- HDAC1 activity raw data (signal) [1, 17]: 96156
- HDAC1 activity raw data (signal) [1, 18]: 447049
- HDAC1 activity raw data (signal) [1, 19]: 424224
- HDAC1 activity raw data (signal) [1, 20]: 905513
- HDAC1 activity raw data (signal) [1, 21]: 862794
- HDAC1 activity raw data (signal) [1, 22]: 1056262
- HDAC1 activity raw data (signal) [1, 23]: 1080293
- HDAC8 activity raw data (signal) [2, 4]: 3317278
- HDAC8 activity raw data (signal) [2, 5]: 3225773
- HDAC8 activity raw data (signal) [2, 6]: 14350924
- HDAC8 activity raw data (signal) [2, 7]: 13274280
- HDAC8 activity raw data (signal) [2, 8]: 29733699
- HDAC8 activity raw data (signal) [2, 9]: 29791882
- HDAC8 activity raw data (signal) [2, 10]: 39649362
- HDAC8 activity raw data (signal) [2, 11]: 39639123
- HDAC8 activity raw data (signal) [2, 12]: 48372865
- HDAC8 activity raw data (signal) [2, 13]: 43623554
- HDAC8 activity raw data (signal) [2, 14]: 8085277
- HDAC8 activity raw data (signal) [2, 15]: 7910023
- HDAC8 activity raw data (signal) [2, 16]: 24973470
- HDAC8 activity raw data (signal) [2, 17]: 23110500
- HDAC8 activity raw data (signal) [2, 18]: 39179752
- HDAC8 activity raw data (signal) [2, 19]: 38239026
- HDAC8 activity raw data (signal) [2, 20]: 45086009
- HDAC8 activity raw data (signal) [2, 21]: 40240975
- HDAC8 activity raw data (signal) [2, 22]: 46468325
- HDAC8 activity raw data (signal) [2, 23]: 43451568
- HDAC2 activity raw data (signal) ([3]; Conc. 1.00E-05 M, t1): 8775
- HDAC2 activity raw data (signal) ([3]; Conc. 1.00E-05 M, t2): 5752
- HDAC2 activity raw data (signal) ([3]; Conc. 1.11E-06 M, t1): 59204
- HDAC2 activity raw data (signal) ([3]; Conc. 1.11E-06 M, t2): 55653
- HDAC2 activity raw data (signal) ([3]; Conc. 1.23E-07 M, t1): 287500
- HDAC2 activity raw data (signal) ([3]; Conc. 1.23E-07 M, t2): 296559
- HDAC2 activity raw data (signal) ([3]; Conc. 1.37E-08 M, t1): 771007
- HDAC2 activity raw data (signal) ([3]; Conc. 1.37E-08 M, t2): 731853
- HDAC2 activity raw data (signal) ([3]; Conc. 1.52E-09 M, t1): 900838
- HDAC2 activity raw data (signal) ([3]; Conc. 1.52E-09 M, t2): 951179
- HDAC2 activity raw data (signal) ([3]; Conc. 3.33E-06 M, t1): 26370
- HDAC2 activity raw data (signal) ([3]; Conc. 3.33E-06 M, t2): 19470
- HDAC2 activity raw data (signal) ([3]; Conc. 3.70E-07 M, t1): 153888
- HDAC2 activity raw data (signal) ([3]; Conc. 3.70E-07 M, t2): 158440
- HDAC2 activity raw data (signal) ([3]; Conc. 4.12E-08 M, t1): 557731
- HDAC2 activity raw data (signal) ([3]; Conc. 4.12E-08 M, t2): 531503
- HDAC2 activity raw data (signal) ([3]; Conc. 4.57E-09 M, t1): 870100
- HDAC2 activity raw data (signal) ([3]; Conc. 4.57E-09 M, t2): 861014
- HDAC2 activity raw data (signal) ([3]; Conc. 5.08E-10 M, t1): 1022928
- HDAC2 activity raw data (signal) ([3]; Conc. 5.08E-10 M, t2): 990162
- pIC50 ([3]; figure legends, Supp. Table 1, read-out: HDAC2 IC50): 7.31
